The target in test [1] is T1, CD73 (Homo sapiens, UniProt P21589).
T1 sequence (P21589 27-574): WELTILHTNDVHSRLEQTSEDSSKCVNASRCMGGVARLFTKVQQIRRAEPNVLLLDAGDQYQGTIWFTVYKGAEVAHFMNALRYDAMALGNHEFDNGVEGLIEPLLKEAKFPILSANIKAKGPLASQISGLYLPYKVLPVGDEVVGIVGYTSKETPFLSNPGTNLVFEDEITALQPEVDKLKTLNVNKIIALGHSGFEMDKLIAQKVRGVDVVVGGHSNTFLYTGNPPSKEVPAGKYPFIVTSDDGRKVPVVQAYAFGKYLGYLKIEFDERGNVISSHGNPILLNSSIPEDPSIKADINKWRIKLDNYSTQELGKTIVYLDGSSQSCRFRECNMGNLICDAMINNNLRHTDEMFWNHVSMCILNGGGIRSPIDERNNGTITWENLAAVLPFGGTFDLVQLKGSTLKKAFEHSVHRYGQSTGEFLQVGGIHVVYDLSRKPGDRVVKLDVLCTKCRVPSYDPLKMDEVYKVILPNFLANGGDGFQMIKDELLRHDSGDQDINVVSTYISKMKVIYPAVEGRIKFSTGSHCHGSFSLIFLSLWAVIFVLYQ
Kind of test: Human CD73 Biochemical Assay. Particulars: 0.05 nM recombinant CD73; AMP 5.56 μM final; 10 min at room temperature; LC/MS adenosine readout; read-out: Enzymatic IC50 against human CD73. How it is done: The purpose of this assay is to identify and characterize inhibitors of human CD73 enzymatic activity. Compound serial dilution (1:3) was prepared with Echo 555 liquid handler (Labcyte) into the corresponding wells of a 384-well plate. 10 μL of enzyme working solution (containing 0.05 nM recombinant CD73 protein, 10 mM Tris pH 7.5, 100 mM NaCl, 0.01% BSA, 0.2 mM Octyl glucoside and 1 mM NaH2PO4) was added to the assay plate and incubated with compounds for 15 minutes at room temperature. After adding 15 μL of AMP working solution (Containing 10 mM Tris pH 7.5, 100 mM NaCl, 0.01% BSA, 0.2 mM Octyl glucoside, with 5.56 μM of AMP final concentration) and incubate for 10 min at room temperature. Stop the reaction by adding 75 μL of stop solution (5% TCA in H2O containing 250 nM 13C5-adenosine) to each well for 10 min incubation. After centrifugation, 75 μL of the mixture was transferred to a new 384-well plate for LC/MS analysis.
Samples from the 384-well plates, were loaded onto an autosampler deck, then injected with ADDA-LC-MS/MS. The aqueous mobile phase is 0.1% formic acid in water. The organic mobile phase is 0.1% formic acid in acetonitrile. Flow rate is maintained at 0.8 mL/minute using Shimadzu pumps. The column is ACE 5 Phenyl, 50×2.1 mm. The analysis was performed on a SCIEX triple quadrupole mass spectrometer operating in positive ion mode. The effluent from the HPLC column was directly introduced into the electrospray ionization (ESI). Multiple reaction monitoring (MRM) is used to determine analyte and internal standard (IS) responses. The MRM for adenosine is 268.1/136.1, for 13C5-Adenosine (IS) is 273.2/136.2. The data is calculated using the peak area ratio (PAR) semi-quantitative method.

Test [2] concerns the target T1, CD73. Kind of test: CD73 Cellular Assay. Particulars: MDA-MB-231 cells; 200 μM AMP working solution; 45 min at 37° C.; malachite readout; read-out: Cellular IC50 against CD73. The class given is cell-based. Details: 40 μL of MDA-MB-231 cells (ATCC, HTB-26, breast cancer); host or cells: MDA-MB-231. The procedure:
Compound serial dilution (1:3) was prepared with Echo 555 liquid handler (Labcyte) into the corresponding wells of a 384-well plate. 40 μL of MDA-MB-231 cells (ATCC, HTB-26, breast cancer, final concentration at 20,000 cells/mL) suspended in assay buffer (20 mM HEPES pH 7.4, 137 mM NaCl, 5.4 mM KCl, 1.3 mM CaCl2, 4.2 mM NaHCO3, 1 mg/mL glucose) were added into the corresponding wells of the plate. After incubating with compounds for 30 minutes, 40 μL of AMP working solution (200 μM AMP in assay buffer) was added into each well in the assay plate. The assay plate was then incubated in a 5% CO2 incubator (Thermo Fisher Scientific) at 37° C. for 45 min. After the reaction was completed, 50 μL of the supernatants was collected and transferred into a new 384 well plate. 10 μL of Malachite A was added to each well in the assay plate and incubated for 10 minutes. 10 μL of Malachite B was then added to each corresponding well of the plate and incubated for 30 minutes. Finally the absorbance value was read on the Envision plate reader at […]. Calculation percentage inhibition by using equation {% inhibition=100×[1−(X−MIN)/(MAX−MIN)]} where X equals to the well signal, Max equals signal of neutral control and MIN equals signal of inhibitor control.

Among the data in US20260317332A1, “BICYCLIC HETEROCYCLE COMPOUNDS FOR THE TREATMENT OF CANCER” (Hoffmann-La Roche Inc., priority 2023, published 2026) are IC50 values, retold here.

As usually defined, the IC50 is the concentration that gives 50% inhibition.

For the compound `Cn1nc(O[C@H](c2cncc(OCC(F)(F)F)c2)C(F)F)c2cc(-c3c[nH]c(=O)[nH]c3=O)nnc21` (single isomer, unassigned) [Example 8A], the IC50 at CD73 [1] was 70 pM; on CD73 [2], 660 pM.

As to `C[C@H](Oc1nn(C)c2nnc(-c3c[nH]c(=O)[nH]c3=O)cc12)c1cc(OCC(F)(F)F)ncn1` (single isomer, unassigned) [Example 14A], the IC50 is 90 pM at CD73 [1] and 1040 pM at CD73 [2].

On to `Cn1nc(O[C@H](c2cc(COC(F)(F)F)ccn2)C(F)F)c2cc(-c3c[nH]c(=O)[nH]c3=O)nnc21` (single isomer, unassigned) [Example 36A], for which the IC50 at CD73 [1] stood at 80 pM; at CD73 [2], 620 pM.

Take `C[C@H](OC1CC1)c1cc([C@@H](Oc2nn(C)c3nnc(-c4c[nH]c(=O)[nH]c4=O)cc23)C(F)F)ccn1` (single isomer, unassigned) [Example 37A]: the figures for the IC50 on CD73 [1] and at CD73 [2] were 130 pM and 870 pM, respectively.

Turning to `C[C@@H](OC1CC1)c1cc([C@@H](Oc2nn(C)c3nnc(-c4c[nH]c(=O)[nH]c4=O)cc23)C(F)F)ccn1` (single isomer, unassigned) [Example 37B], the IC50 on CD73 [1] came to 90 pM; at CD73 [2], 840 pM.

In the case of `C[C@H]1COC[C@@H]1Oc1cc([C@@H](Oc2nn(C)c3nnc(-c4c[nH]c(=O)[nH]c4=O)cc23)C(F)F)ccn1` (stereo in doubt) [Example 40, 5-[1-methyl-3-[(1R)-2,2-difluoro-1-[2-[(trans)-4-methyltetrahydrofuran-3-yl]oxy-4-pyridyl]ethoxy]pyrazolo[3,4-c]pyridazin-5-yl]-1H-pyrimidine-2,4-dione], the IC50 at CD73 [1] turned out to be 50 pM; at CD73 [2] it was 570 pM.

Regarding `Cn1nc(O[C@H](c2cccc(OCC(F)(F)F)c2)C(F)F)c2cc(-c3c[nH]c(=O)[nH]c3=O)nnc21` [Example 1, 5-[3-[(1R)-2,2-difluoro-1-[3-(2,2,2-trifluoroethoxy)phenyl]ethoxy]-1-methyl-pyrazolo[3,4-c]pyridazin-5-yl]-1H-pyrimidine-2,4-dione], the IC50 at CD73 [1] stood at 80 pM; at CD73 [2], 700 pM.

Turning to `[2H]C([2H])(Oc1ccnc([C@@H](Oc2nn(C)c3nnc(-c4c[nH]c(=O)[nH]c4=O)cc23)C(F)F)c1)C(F)(F)F` [Example 5, 5-[3-[(1R)-1-[4-(1,1-dideuterio-2,2,2-trifluoro-ethoxy)-2-pyridyl]-2,2-difluoro-ethoxy]-1-methyl-pyrazolo[3,4-c]pyridazin-5-yl]-1H-pyrimidine-2,4-dione], the IC50 at CD73 [2] amounted to 520 pM.

With `[2H]C([2H])([2H])n1nc(O[C@H](c2cc(OCC(F)(F)F)ccn2)C(F)F)c2cc(-c3c[nH]c(=O)[nH]c3=O)nnc21` [Example 6, 5-[3-[(1R)-2,2-difluoro-1-[4-(2,2,2-trifluoroethoxy)-2-pyridyl]ethoxy]-1-(trideuteriomethyl)pyrazolo[3,4-c]pyridazin-5-yl]-1H-pyrimidine-2,4-dione], the IC50 at CD73 [2] amounted to 430 pM.

As to `CC(Oc1ccnc([C@@H](Oc2nn(C)c3nnc(-c4c[nH]c(=O)[nH]c4=O)cc23)C(F)F)c1)C(F)(F)F` (stereo partly drawn) [Example 17, 5-[1-methyl-3-[(1R)-2,2-difluoro-1-[4-(2,2,2-trifluoro-1-methyl-ethoxy)-2-pyridyl]ethoxy]pyrazolo[3,4-c]pyridazin-5-yl]-1H-pyrimidine-2,4-dione], on CD73 [2], the IC50 worked out at 390 pM.

On to `Cn1nc(O[C@H](c2cc(OCC3CC3(F)F)ccn2)C(F)F)c2cc(-c3c[nH]c(=O)[nH]c3=O)nnc21` (stereo partly drawn) [Example 18, 5-[1-methyl-3-[(1R)-1-[4-[(2,2-difluorocyclopropyl)methoxy]-2-pyridyl]-2,2-difluoro-ethoxy]pyrazolo[3,4-c]pyridazin-5-yl]-1H-pyrimidine-2,4-dione], for which the IC50 on CD73 [2] amounted to 540 pM.

As to `Cn1nc(O[C@H](c2cc(OCC3(F)CC3)ccn2)C(F)F)c2cc(-c3c[nH]c(=O)[nH]c3=O)nnc21` [Example 19, 5-[3-[(1R)-2,2-difluoro-1-[4-[(1-fluorocyclopropyl)methoxy]-2-pyridyl]ethoxy]-1-methyl-pyrazolo[3,4-c]pyridazin-5-yl]-1H-pyrimidine-2,4-dione], at CD73 [2], the IC50 came out at 590 pM.

Regarding `Cn1nc(O[C@H](c2cc(OCC3(C#N)CC3)ccn2)C(F)F)c2cc(-c3c[nH]c(=O)[nH]c3=O)nnc21` [Example 22, 1-[[2-[(1R)-1-[5-(2,4-dioxo-1H-pyrimidin-5-yl)-1-methyl-pyrazolo[3,4-c]pyridazin-3-yl]oxy-2,2-difluoro-ethyl]-4-pyridyl]oxymethyl]cyclopropanecarbonitrile], the 50% inhibitory concentration (IC50) on CD73 [2] turned out to be 430 pM.

Take `Cn1nc(O[C@H](c2ccc3c(c2)N(CC(F)(F)F)CCO3)C(F)F)c2cc(-c3c[nH]c(=O)[nH]c3=O)nnc21` [Example 25, 5-[3-[(1R)-2,2-difluoro-1-[4-(2,2,2-trifluoroethyl)-2,3-dihydro-1,4-benzoxazin-6-yl]ethoxy]-1-methyl-pyrazolo[3,4-c]pyridazin-5-yl]-1H-pyrimidine-2,4-dione]: the IC50 at CD73 [2] was 1290 pM.

Turning to `CCOc1cc([C@@H](Oc2nn(C)c3nnc(-c4c[nH]c(=O)[nH]c4=O)cc23)C(F)F)ccn1` [Example 29, 5-[3-[(1R)-1-(2-ethoxy-4-pyridyl)-2,2-difluoro-ethoxy]-1-methyl-pyrazolo[3,4-c]pyridazin-5-yl]-1H-pyrimidine-2,4-dione], on CD73 [2], the IC50 is 510 pM.

Consider `Cn1nc(O[C@H](c2ccnc(CN3CCC(F)(F)C3)c2)C(F)F)c2cc(-c3c[nH]c(=O)[nH]c3=O)nnc21` [Example 33, 5-[3-[(1R)-1-[2-[(3,3-difluoropyrrolidin-1-yl)methyl]-4-pyridyl]-2,2-difluoro-ethoxy]-1-methyl-pyrazolo[3,4-c]pyridazin-5-yl]-1H-pyrimidine-2,4-dione], for which the half-maximal inhibitory concentration (IC50) on CD73 [2] is 630 pM.

On to `[2H]C([2H])([2H])C([2H])([2H])Oc1cc([C@@H](Oc2nn(C)c3nnc(-c4c[nH]c(=O)[nH]c4=O)cc23)C(F)F)ncn1` [Example 39A, 5-[3-[(1R)-2,2-difluoro-1-[6-(1,1,2,2,2-pentadeuterioethoxy)pyrimidin-4-yl]ethoxy]-1-methyl-pyrazolo[3,4-c]pyridazin-5-yl]-1H-pyrimidine-2,4-dione], for which the IC50 at CD73 [2] came out at 650 pM.

`COC1(COc2cc([C@@H](Oc3nn(C)c4nnc(-c5c[nH]c(=O)[nH]c5=O)cc34)C(F)F)ccn2)CC1` [Example 41, 5-[3-[(1R)-2,2-difluoro-1-[2-[(1-methoxycyclopropyl)methoxy]-4-pyridyl]ethoxy]-1-methyl-pyrazolo[3,4-c]pyridazin-5-yl]-1H-pyrimidine-2,4-dione]: the IC50 at CD73 [2] is 730 pM.
